In test [1] the target is hNav1.7 (Homo sapiens, UniProt Q15858). The test can be described thus: cell-based. To be noted: Nav1.7 Use IC50.
In test [2] the target is hNav1.5 (Homo sapiens, UniProt Q14524). The test can be described thus: cell-based.

This is an account of results in patent publication US9340590B2 (priority 2011, dated 2016).

Positions of bridges follow the written chain, without caps; N, C: chain ends. Non-standard residues stand in square brackets, D forms with d. Residues, ends and D or L forms follow the SMILES beside them. *: point of attachment. DOTA = O=C(O)CN1CCN(CC(=O)O)CCN(CC(=O)*)CCN(CC(=O)O)CC1; Pra = C#CC[C@H](N)C(=O)O; Abu = CC[C@H](N)C(=O)O

hNav1.7, sequence (Q15858 whole entry, looked up): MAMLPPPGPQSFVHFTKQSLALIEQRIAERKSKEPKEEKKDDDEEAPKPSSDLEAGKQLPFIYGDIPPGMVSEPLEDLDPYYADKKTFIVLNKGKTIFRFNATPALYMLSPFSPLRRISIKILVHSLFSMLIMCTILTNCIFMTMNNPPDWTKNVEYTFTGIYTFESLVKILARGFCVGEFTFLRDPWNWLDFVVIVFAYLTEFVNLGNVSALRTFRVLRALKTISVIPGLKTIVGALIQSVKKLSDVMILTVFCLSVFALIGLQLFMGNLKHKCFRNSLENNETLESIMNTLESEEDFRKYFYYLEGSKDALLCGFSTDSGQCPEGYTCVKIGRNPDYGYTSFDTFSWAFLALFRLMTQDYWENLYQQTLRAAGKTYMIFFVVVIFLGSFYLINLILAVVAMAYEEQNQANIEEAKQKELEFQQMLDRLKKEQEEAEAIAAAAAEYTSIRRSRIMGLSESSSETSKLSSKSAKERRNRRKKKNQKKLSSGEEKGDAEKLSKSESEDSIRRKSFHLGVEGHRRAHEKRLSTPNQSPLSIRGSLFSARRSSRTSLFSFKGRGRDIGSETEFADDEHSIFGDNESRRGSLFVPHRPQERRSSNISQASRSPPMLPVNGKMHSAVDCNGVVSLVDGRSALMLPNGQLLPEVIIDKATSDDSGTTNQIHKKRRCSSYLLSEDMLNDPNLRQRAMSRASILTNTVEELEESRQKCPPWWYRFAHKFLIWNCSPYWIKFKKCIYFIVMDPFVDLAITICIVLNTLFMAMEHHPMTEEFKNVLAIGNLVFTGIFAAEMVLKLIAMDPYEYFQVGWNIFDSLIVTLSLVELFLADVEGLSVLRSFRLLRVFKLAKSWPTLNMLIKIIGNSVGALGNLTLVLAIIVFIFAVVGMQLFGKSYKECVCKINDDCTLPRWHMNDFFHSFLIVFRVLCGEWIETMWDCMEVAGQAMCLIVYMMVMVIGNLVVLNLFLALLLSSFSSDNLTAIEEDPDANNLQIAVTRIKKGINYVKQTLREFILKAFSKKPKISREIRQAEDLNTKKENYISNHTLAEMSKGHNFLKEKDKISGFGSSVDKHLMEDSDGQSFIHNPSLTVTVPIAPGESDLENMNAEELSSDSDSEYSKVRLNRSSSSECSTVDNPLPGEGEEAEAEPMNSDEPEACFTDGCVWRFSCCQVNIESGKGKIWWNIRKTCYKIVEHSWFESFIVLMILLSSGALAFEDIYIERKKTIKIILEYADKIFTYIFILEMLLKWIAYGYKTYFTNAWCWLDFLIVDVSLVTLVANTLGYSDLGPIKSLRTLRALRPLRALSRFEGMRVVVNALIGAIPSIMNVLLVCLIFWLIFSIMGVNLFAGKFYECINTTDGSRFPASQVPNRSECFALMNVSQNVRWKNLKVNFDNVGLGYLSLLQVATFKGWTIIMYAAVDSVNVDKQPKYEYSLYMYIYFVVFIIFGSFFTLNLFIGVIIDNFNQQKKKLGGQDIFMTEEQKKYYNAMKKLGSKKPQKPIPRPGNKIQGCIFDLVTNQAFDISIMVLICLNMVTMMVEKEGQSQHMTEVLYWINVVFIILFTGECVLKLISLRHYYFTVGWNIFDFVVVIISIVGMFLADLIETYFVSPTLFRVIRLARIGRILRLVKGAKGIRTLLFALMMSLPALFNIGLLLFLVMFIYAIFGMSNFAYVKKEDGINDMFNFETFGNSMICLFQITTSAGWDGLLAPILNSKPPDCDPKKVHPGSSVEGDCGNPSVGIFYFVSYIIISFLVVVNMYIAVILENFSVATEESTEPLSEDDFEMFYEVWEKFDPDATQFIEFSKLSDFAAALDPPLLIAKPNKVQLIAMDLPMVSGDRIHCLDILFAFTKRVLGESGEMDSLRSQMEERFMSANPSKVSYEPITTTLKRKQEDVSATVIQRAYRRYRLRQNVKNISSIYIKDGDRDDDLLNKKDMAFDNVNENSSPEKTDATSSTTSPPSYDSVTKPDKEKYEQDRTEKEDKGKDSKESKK
hNav1.5, sequence (Q14524 whole entry, looked up): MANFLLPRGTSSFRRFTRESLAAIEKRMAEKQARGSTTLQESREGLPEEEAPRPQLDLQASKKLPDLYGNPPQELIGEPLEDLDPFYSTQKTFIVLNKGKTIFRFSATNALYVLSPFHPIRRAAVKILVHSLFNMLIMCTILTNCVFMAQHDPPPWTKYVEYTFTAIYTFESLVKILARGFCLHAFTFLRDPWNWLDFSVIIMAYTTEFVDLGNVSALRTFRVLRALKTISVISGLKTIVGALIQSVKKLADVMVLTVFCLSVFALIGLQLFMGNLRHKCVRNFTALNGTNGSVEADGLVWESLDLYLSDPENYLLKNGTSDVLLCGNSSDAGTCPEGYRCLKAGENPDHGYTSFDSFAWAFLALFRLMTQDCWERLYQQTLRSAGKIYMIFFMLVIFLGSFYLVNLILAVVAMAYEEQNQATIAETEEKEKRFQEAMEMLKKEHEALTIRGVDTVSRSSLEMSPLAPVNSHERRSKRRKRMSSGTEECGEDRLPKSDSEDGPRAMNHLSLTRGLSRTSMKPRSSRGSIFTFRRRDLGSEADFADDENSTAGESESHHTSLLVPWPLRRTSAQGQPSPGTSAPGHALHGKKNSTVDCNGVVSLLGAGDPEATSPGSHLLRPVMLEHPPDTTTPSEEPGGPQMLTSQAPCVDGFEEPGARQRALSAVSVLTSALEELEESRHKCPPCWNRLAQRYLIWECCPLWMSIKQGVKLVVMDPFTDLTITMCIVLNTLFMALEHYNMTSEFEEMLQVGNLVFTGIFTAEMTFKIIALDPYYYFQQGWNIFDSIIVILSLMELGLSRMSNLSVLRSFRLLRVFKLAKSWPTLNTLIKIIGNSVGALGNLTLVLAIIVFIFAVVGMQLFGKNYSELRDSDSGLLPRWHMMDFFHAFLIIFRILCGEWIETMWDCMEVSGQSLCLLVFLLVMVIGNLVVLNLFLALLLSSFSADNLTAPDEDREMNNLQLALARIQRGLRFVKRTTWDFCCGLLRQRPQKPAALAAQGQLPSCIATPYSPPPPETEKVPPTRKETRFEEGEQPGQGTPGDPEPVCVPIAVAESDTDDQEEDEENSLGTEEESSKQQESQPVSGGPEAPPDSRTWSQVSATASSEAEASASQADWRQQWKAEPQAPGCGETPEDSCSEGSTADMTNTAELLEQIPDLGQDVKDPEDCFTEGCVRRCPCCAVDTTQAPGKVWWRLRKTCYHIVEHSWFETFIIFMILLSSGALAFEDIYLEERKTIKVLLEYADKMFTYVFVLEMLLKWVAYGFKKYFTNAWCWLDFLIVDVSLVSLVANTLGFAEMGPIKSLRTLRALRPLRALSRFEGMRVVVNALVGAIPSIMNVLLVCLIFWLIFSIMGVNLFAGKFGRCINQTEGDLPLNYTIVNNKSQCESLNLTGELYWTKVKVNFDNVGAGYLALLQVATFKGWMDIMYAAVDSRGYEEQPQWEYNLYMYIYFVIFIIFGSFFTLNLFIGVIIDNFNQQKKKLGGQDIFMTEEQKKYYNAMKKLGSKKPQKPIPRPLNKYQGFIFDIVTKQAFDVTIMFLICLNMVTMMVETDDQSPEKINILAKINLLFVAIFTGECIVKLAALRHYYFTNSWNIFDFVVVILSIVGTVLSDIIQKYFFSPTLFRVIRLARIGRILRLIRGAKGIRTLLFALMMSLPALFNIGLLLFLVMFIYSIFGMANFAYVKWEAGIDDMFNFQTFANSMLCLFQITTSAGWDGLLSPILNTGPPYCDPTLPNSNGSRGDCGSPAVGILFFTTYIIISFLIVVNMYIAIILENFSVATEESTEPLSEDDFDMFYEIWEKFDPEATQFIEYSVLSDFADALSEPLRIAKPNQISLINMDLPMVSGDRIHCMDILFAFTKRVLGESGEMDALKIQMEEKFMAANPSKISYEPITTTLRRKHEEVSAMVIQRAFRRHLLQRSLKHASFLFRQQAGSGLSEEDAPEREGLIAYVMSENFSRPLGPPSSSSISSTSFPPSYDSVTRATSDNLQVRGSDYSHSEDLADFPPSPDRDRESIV

Consider `CC[C@H](C)[C@@H]1NC(=O)[C@@H]2CSSC[C@@H]3NC(=O)[C@H](C(C)C)NC(=O)[C@H](CC(C)C)NC(=O)[C@H](CC(N)=O)NC(=O)[C@@H]4CCCN4C(=O)[C@H](CCCNC(=N)N)NC(=O)[C@H](CSSC[C@H](NC(=O)[C@@H](N)CC(=O)O)C(=O)N[C@@H](CC(C)C)C(=O)NCC(=O)N[C@@H](C)C(=O)N[C@@H](Cc4ccccc4)C(=O)N[C@@H](CCCNC(=N)N)C(=O)N[C@@H](CCCCN)C(=O)N2)NC(=O)[C@H](CSSC[C@@H](C(=O)N[C@@H](CCCCN)C(=O)N[C@@H](Cc2ccc(O)cc2)C(=O)N[C@H](C(=O)N[C@@H](Cc2ccccc2)C(N)=O)C(C)C)NC(=O)[C@H](Cc2c[nH]c4ccccc24)NC(=O)[C@H](CCCNC(=N)N)NC(=O)[C@H](Cc2c[nH]cn2)NC(=O)[C@H](CC(C)C)NC(=O)[C@H](CCCNC(=N)N)NC(=O)[C@H](CO)NC3=O)NC(=O)[C@H](CCCCN)NC(=O)[C@H](CC(=O)O)NC(=O)[C@H](Cc2cn(CCOCCOCCOCCOCCOCCOCCOCCOCCOCCOCCOCCNC(=O)CSCCO)nn2)NC(=O)[C@H](CC(=O)O)NC(=O)[C@@H]2CCCN2C1=O`, for which the values for the concentration for half-maximal inhibition (IC50) in test [1] and in test [2] were 35 nM and greater than 10 µM, respectively.

For the compound `CC[C@@H]1NC(=O)[C@H](CC(=O)O)NC(=O)[C@@H]2CCCN2C(=O)[C@H](CCC(=O)O)NC(=O)[C@@H]2CSSC[C@@H]3NC(=O)[C@H](C(C)C)NC(=O)[C@H](CC(C)C)NC(=O)[C@H](CC(N)=O)NC(=O)[C@@H]4CCCN4C(=O)[C@H](CCCNC(=N)N)NC(=O)[C@H](CSSC[C@H](NC(=O)[C@@H](N)CC(=O)O)C(=O)N[C@@H](CC(C)C)C(=O)NCC(=O)N[C@@H](C)C(=O)N[C@@H](Cc4ccccc4)C(=O)N[C@@H](CCCNC(=N)N)C(=O)N[C@@H](CCCCN)C(=O)N2)NC(=O)[C@H](CSSC[C@@H](C(=O)N[C@@H](CCCCN)C(=O)N[C@@H](Cc2ccc(O)cc2)C(=O)N[C@H](C(=O)N[C@@H](Cc2ccccc2)C(N)=O)C(C)C)NC(=O)[C@H](Cc2c[nH]c4ccccc24)NC(=O)[C@H](CCCNC(=N)N)NC(=O)[C@H](Cc2c[nH]cn2)NC(=O)[C@H](CC(C)C)NC(=O)[C@H](CCCNC(=N)N)NC(=O)[C@H](CO)NC3=O)NC(=O)[C@H](CCCCN)NC(=O)[C@H](CC(=O)O)NC1=O` (H-DCLGAFRKCEPD[Abu]DKCCRPNLVCSRLHRWCKYVF-NH2; disulfide 2-17, 9-23, 16-30), the IC50 in test [1] is 3.5 nM; in test [2] it was greater than 10 µM.

For `C#CC[C@@H]1NC(=O)[C@H](CC(=O)O)NC(=O)[C@@H]2CCCN2C(=O)[C@H](CCC(=O)O)NC(=O)[C@@H]2CSSC[C@@H]3NC(=O)[C@H](C(C)C)NC(=O)[C@H](CC(C)C)NC(=O)[C@H](CC(N)=O)NC(=O)[C@@H]4CCCN4C(=O)[C@H](CCCNC(=N)N)NC(=O)[C@H](CSSC[C@H](NC(=O)[C@@H](N)CC(=O)O)C(=O)N[C@@H](CC(C)C)C(=O)NCC(=O)N[C@@H](C)C(=O)N[C@@H](Cc4ccccc4)C(=O)N[C@@H](CCCNC(=N)N)C(=O)N[C@@H](CCCCN)C(=O)N2)NC(=O)[C@H](CSSC[C@@H](C(=O)N[C@@H](CCCCN)C(=O)N[C@@H](Cc2ccc(O)cc2)C(=O)N[C@H](C(=O)N[C@@H](Cc2ccccc2)C(N)=O)C(C)C)NC(=O)[C@H](Cc2c[nH]c4ccccc24)NC(=O)[C@H](CCCNC(=N)N)NC(=O)[C@H](Cc2c[nH]cn2)NC(=O)[C@H](CC(C)C)NC(=O)[C@H](CCCNC(=N)N)NC(=O)[C@H](CO)NC3=O)NC(=O)[C@H](CCCCN)NC(=O)[C@H](CC(=O)O)NC1=O` (H-DCLGAFRKCEPD[Pra]DKCCRPNLVCSRLHRWCKYVF-NH2; disulfide 2-17, 9-23, 16-30), the IC50 stood at 12 nM in test [1] and 15.3 µM in test [2].

For the compound `CC[C@H](C)[C@@H]1NC(=O)[C@@H]2CSSC[C@@H]3NC(=O)[C@H](C(C)C)NC(=O)[C@H](CC(C)C)NC(=O)[C@H](CC(N)=O)NC(=O)[C@@H]4CCCN4C(=O)[C@H](CCCNC(=N)N)NC(=O)[C@H](CSSC[C@H](NC(=O)[C@@H](N)CC(=O)O)C(=O)N[C@@H](CC(C)C)C(=O)NCC(=O)N[C@@H](C)C(=O)N[C@@H](Cc4ccccc4)C(=O)N[C@@H](CCCNC(=N)N)C(=O)N[C@@H](CCCCN)C(=O)N2)NC(=O)[C@H](CSSC[C@@H](C(=O)N[C@@H](CCCCN)C(=O)N[C@@H](Cc2ccc(O)cc2)C(=O)N[C@H](C(=O)N[C@@H](Cc2ccccc2)C(N)=O)C(C)C)NC(=O)[C@H](Cc2c[nH]c4ccccc24)NC(=O)[C@H](CCCNC(=N)N)NC(=O)[C@H](Cc2c[nH]cn2)NC(=O)[C@H](CC(C)C)NC(=O)[C@H](CCCNC(=N)N)NC(=O)[C@H](CO)NC3=O)NC(=O)[C@H](CCCCN)NC(=O)[C@H](CC(=O)O)NC(=O)[C@H](CCCCNC(=O)CN2CCN(CC(=O)O)CCN(CC(=O)O)CCN(CC(=O)O)CC2)NC(=O)[C@H](CC(=O)O)NC(=O)[C@@H]2CCCN2C1=O` (H-DCLGAFRKCIPDK(DOTA)DKCCRPNLVCSRLHRWCKYVF-NH2; disulfide 2-17, 9-23, 16-30), the IC50 in test [1] was 27.5 nM; in test [2] it was greater than 10 µM.

`CC[C@@H]1NC(=O)[C@H](CC(=O)O)NC(=O)[C@@H]2CCCN2C(=O)[C@H]([C@@H](C)CC)NC(=O)[C@@H]2CSSC[C@@H]3NC(=O)[C@H](C(C)C)NC(=O)[C@H](CC(C)C)NC(=O)[C@H](CC(N)=O)NC(=O)[C@@H]4CCCN4C(=O)[C@H](CCCNC(=N)N)NC(=O)[C@H](CSSC[C@H](NC(=O)[C@@H](N)CC(=O)O)C(=O)N[C@@H](CC(C)C)C(=O)NCC(=O)N[C@@H](C)C(=O)N[C@@H](Cc4ccccc4)C(=O)N[C@@H](CCCNC(=N)N)C(=O)N[C@@H](CCCCN)C(=O)N2)NC(=O)[C@H](CSSC[C@@H](C(=O)N[C@@H](CCCCN)C(=O)N[C@@H](Cc2ccc(O)cc2)C(=O)N[C@H](C(=O)N[C@@H](Cc2ccccc2)C(N)=O)C(C)C)NC(=O)[C@H](Cc2c[nH]c4ccccc24)NC(=O)[C@H](CCCNC(=N)N)NC(=O)[C@H](Cc2c[nH]cn2)NC(=O)[C@H](CC(C)C)NC(=O)[C@H](CCCNC(=N)N)NC(=O)[C@H](CO)NC3=O)NC(=O)[C@H](CCCCN)NC(=O)[C@H](CC(=O)O)NC1=O` (H-DCLGAFRKCIPD[Abu]DKCCRPNLVCSRLHRWCKYVF-NH2; disulfide 2-17, 9-23, 16-30): the IC50 in test [1] is 4.7 nM; in test [2], greater than 10 µM.

On to `C#CC[C@@H]1NC(=O)[C@H](CC(=O)O)NC(=O)[C@@H]2CCCN2C(=O)[C@H]([C@@H](C)CC)NC(=O)[C@@H]2CSSC[C@@H]3NC(=O)[C@H](C(C)C)NC(=O)[C@H](CC(C)C)NC(=O)[C@H](CC(N)=O)NC(=O)[C@@H]4CCCN4C(=O)[C@H](CCCNC(=N)N)NC(=O)[C@H](CSSC[C@H](NC(=O)[C@@H](N)CC(=O)O)C(=O)N[C@@H](CC(C)C)C(=O)NCC(=O)N[C@@H](C)C(=O)N[C@@H](Cc4ccccc4)C(=O)N[C@@H](CCCNC(=N)N)C(=O)N[C@@H](CCCCN)C(=O)N2)NC(=O)[C@H](CSSC[C@@H](C(=O)N[C@@H](CCCCN)C(=O)N[C@@H](Cc2ccc(O)cc2)C(=O)N[C@H](C(=O)N[C@@H](Cc2ccccc2)C(N)=O)C(C)C)NC(=O)[C@H](Cc2c[nH]c4ccccc24)NC(=O)[C@H](CCCNC(=N)N)NC(=O)[C@H](Cc2c[nH]cn2)NC(=O)[C@H](CC(C)C)NC(=O)[C@H](CCCNC(=N)N)NC(=O)[C@H](CO)NC3=O)NC(=O)[C@H](CCCCN)NC(=O)[C@H](CC(=O)O)NC1=O` (H-DCLGAFRKCIPD[Pra]DKCCRPNLVCSRLHRWCKYVF-NH2; disulfide 2-17, 9-23, 16-30), for which the concentration for half-maximal inhibition (IC50) was 3 nM in test [1] and greater than 10 µM in test [2].

`CC[C@H](C)[C@@H]1NC(=O)[C@@H]2CSSC[C@@H]3NC(=O)[C@H](C(C)C)NC(=O)[C@H](CC(C)C)NC(=O)[C@H](CC(N)=O)NC(=O)[C@@H]4CCCN4C(=O)[C@H](CCCNC(=N)N)NC(=O)[C@H](CSSC[C@H](NC(=O)[C@@H](N)CC(=O)O)C(=O)N[C@@H](CC(C)C)C(=O)NCC(=O)N[C@@H](C)C(=O)N[C@@H](CC(C)C)C(=O)N[C@@H](CCCNC(=N)N)C(=O)N[C@@H](CCCCN)C(=O)N2)NC(=O)[C@H](CSSC[C@@H](C(=O)N[C@@H](CCCCN)C(=O)N[C@@H](Cc2ccc(O)cc2)C(=O)N[C@H](C(=O)N[C@@H](Cc2ccccc2)C(=O)N[C@@H](Cc2c[nH]c4ccccc24)C(=O)O)C(C)C)NC(=O)[C@H](Cc2c[nH]c4ccccc24)NC(=O)[C@H](CCCNC(=N)N)NC(=O)[C@H](Cc2c[nH]cn2)NC(=O)[C@H]([C@@H](C)O)NC(=O)[C@H](CCCNC(=N)N)NC(=O)[C@H](CO)NC3=O)NC(=O)[C@H](CCCCN)NC(=O)[C@H](CC(=O)O)NC(=O)[C@H](CC(N)=O)NC(=O)[C@H](CC(=O)O)NC(=O)[C@@H]2CCCN2C1=O` (H-DCLGALRKCIPDNDKCCRPNLVCSRTHRWCKYVFW-OH; disulfide 2-17, 9-23, 16-30): the values for the half-maximal inhibitory concentration (IC50) in test [1] and in test [2] were 50 nM and greater than 10 µM, respectively.

Take `CC[C@@H]1NC(=O)[C@H](CC(=O)O)NC(=O)[C@@H]2CCCN2C(=O)[C@H]([C@@H](C)CC)NC(=O)[C@@H]2CSSC[C@@H]3NC(=O)[C@H](C(C)C)NC(=O)[C@H](CC(C)C)NC(=O)[C@H](CC(N)=O)NC(=O)[C@@H]4CCCN4C(=O)[C@H](CCCNC(=N)N)NC(=O)[C@H](CSSC[C@H](NC(=O)[C@@H](N)CC(=O)O)C(=O)N[C@@H](CC(C)C)C(=O)NCC(=O)N[C@@H](C)C(=O)N[C@@H](CC(C)C)C(=O)N[C@@H](CCCNC(=N)N)C(=O)N[C@@H](CCCCN)C(=O)N2)NC(=O)[C@H](CSSC[C@@H](C(=O)N[C@@H](CCCCN)C(=O)N[C@@H](Cc2ccc(O)cc2)C(=O)N[C@H](C(=O)N[C@@H](Cc2ccccc2)C(N)=O)C(C)C)NC(=O)[C@H](Cc2c[nH]c4ccccc24)NC(=O)[C@H](CCCNC(=N)N)NC(=O)[C@H](Cc2c[nH]cn2)NC(=O)[C@H](CC(C)C)NC(=O)[C@H](CCCNC(=N)N)NC(=O)[C@H](CO)NC3=O)NC(=O)[C@H](CCCCN)NC(=O)[C@H](CC(=O)O)NC1=O` (H-DCLGALRKCIPD[Abu]DKCCRPNLVCSRLHRWCKYVF-NH2; disulfide 2-17, 9-23, 16-30): the concentration for half-maximal inhibition (IC50) is 8.7 nM in test [1] and greater than 10 µM in test [2].
